According to ChEMBL document CHEMBL5131397, “Discovery and Optimization of Pyrazole Amides as Inhibitors of ELOVL1” (J Med Chem, 2021):
The source made the active and inactive calls. The calls are words filed in the database; no cut-off is given here.

Key:
[1] = target: T1, Very long chain fatty acid elongase 1 (Homo sapiens, UniProt Q9BW60); experiment: Inhibition of ELOVL1 (unknown origin) using C22-acyl-CoA as substrate by radiometric enzyme assay
T1 sequence (Q9BW60 whole entry): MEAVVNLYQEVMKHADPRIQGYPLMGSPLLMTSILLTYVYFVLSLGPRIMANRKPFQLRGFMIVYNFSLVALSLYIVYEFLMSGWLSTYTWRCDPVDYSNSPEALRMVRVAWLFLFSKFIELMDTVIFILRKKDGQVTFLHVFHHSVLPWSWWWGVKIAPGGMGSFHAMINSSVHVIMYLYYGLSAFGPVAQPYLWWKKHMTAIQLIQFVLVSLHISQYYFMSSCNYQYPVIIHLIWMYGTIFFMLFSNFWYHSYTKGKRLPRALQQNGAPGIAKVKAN

[2] = system: Mus musculus; experiment: Reduction in C26:0 LPC level in ABCD1 KO mouse blood administered orally qd for 105 days by LC-MS/MS analysis; assay type: functional, tissue-based; details: route po, time 105.0 day, DDE = dose-dependent effect
[3] = AUC (infinity) in Cynomolgus monkey at 3 mg/kg, po upto 24 hrs by LC/MS/MS analysis; assay type: ADME, organism-based, Macaca fascicularis; design: dose 3 mg/kg, time < 24 hrs, route po; details: in vivo
[4] = target: T1, Very long chain fatty acid elongase 1; experiment: Inhibition of ELOVL1 in AMN 1 patient-derived fibroblast assessed as reduction of C26:0 VLCFA synthesis incubated for 48 hrs by cellular assay; assay type: cell-based
[5] = target: T2, Serine/threonine-protein kinase TNNI3K (Homo sapiens) (UniProt Q59H18); experiment: Inhibition of TNNI3K (unknown origin) at 10 uM
T2 sequence (whole entry): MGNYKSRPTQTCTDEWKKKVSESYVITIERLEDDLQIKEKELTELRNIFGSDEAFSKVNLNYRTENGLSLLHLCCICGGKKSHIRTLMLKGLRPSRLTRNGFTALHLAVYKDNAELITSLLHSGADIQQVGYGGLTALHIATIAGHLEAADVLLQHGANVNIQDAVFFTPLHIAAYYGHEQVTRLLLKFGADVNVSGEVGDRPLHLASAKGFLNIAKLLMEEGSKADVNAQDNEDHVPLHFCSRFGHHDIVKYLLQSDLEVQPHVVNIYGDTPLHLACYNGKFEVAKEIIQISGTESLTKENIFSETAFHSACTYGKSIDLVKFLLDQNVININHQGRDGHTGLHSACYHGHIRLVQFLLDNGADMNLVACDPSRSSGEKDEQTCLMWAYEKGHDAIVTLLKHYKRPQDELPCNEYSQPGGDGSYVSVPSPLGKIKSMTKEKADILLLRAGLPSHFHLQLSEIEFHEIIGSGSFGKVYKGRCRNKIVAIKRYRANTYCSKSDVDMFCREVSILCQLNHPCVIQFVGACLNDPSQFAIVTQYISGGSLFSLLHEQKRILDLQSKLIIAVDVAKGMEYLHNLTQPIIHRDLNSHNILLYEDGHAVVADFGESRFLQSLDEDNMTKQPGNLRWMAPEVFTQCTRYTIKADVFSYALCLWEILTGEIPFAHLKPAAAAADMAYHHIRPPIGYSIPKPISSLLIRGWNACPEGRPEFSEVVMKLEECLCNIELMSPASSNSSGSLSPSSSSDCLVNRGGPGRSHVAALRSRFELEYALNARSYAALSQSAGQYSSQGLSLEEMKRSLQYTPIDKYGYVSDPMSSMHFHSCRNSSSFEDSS

[6] = Intrinsic clearance in human hepatocytes assessed per million cells; assay type: ADME, cell-based, Hepatocyte; details: read-out: CLH
[7] = Toxicity in juvenile Sprague-Dawley rat assessed as stomach lesions at 5 to 75 mg/kg/day, po treatment started from postnatal day 18 to 114 days; assay type: organism-based; details: in vivo, dose lower 5 mg/kg/day, time lower 18 day, dose upper 75 mg/kg/day, time upper 114 day
[8] = target: T3, Very long chain fatty acid elongase 7 (Homo sapiens) (UniProt A1L3X0); experiment: Inhibition of ELOVL-7 in human HEK2936E cells assessed as increase in C20:0 lipo phosphatidyl choline synthesis at 100 nM in presence of 13C-labeled acetate measured after 48 hrs; assay type: cell-based
T3 sequence (whole entry): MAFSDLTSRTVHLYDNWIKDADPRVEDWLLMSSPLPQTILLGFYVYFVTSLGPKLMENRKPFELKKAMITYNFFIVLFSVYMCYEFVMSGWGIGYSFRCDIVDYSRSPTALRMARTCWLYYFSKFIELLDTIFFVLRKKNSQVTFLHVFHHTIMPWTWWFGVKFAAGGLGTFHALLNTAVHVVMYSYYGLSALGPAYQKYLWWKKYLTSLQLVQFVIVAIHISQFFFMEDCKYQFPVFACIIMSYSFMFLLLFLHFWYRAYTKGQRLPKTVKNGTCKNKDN

[9] = system: Mus musculus; experiment: Reduction in C22:0/C16:0 LPC level in ABCD1 knock out mouse CNS at 1 to 10 mg/kg, po qd measured after 3 months of dosing by LC-MS/MS analysis; assay type: functional, organism-based; details: dose 1-10 mg/kg
[10] = Oral bioavailability in Cynomolgus monkey at 3 mg/kg upto 24 hrs by LC/MS/MS analysis; assay type: ADME, organism-based, Macaca fascicularis; details: in vivo
[11] = Reduction in C26:0 LPC level in Cynomolgus monkey plasma at 15 mg/kg, po qd for 13 weeks by LC-MS/MS analysis (reference value: 2.495 ng/ml); assay type: functional, Macaca fascicularis
[12] = Lipophilicity, logD of compound at pH 7.4; assay type: physicochemical; details: buffer
[13] = system: Mus musculus; experiment: Reduction in C26:0/C16:0 LPC level in high fat diet fed ABCD1 knock out mouse blood at 1 to 8 mg/kg, po qd after 7 days of dosing measured on day 14 by LC-MS/MS analysis; assay type: functional, organism-based; details: dose 1-8 mg/kg, time 14.0 day
[14] = AUC (infinity) in Beagle dog at 3 mg/kg, po upto 24 hrs by LC/MS/MS analysis; assay type: ADME, organism-based, Canis lupus familiaris; design: time < 24 hrs, dose 3 mg/kg, route po; details: in vivo
[15] = Toxicity in Cynomolgus monkey assessed as dry and red scaly areas on face at 5 to 50 mg/kg/day, po administered for 14 days by macroscopic observation analysis; assay type: organism-based, Macaca fascicularis; details: in vivo, 336 h, dose 5-50 mg/kg/day, time 14 day
[16] = Reduction in C26:0/C16:0 LPC level in ABCD1 knock out mouse CNS at 1 mg/kg, po qd measured after 3 months of dosing by LC-MS/MS analysis; assay type: functional; design: scale not given: the % may be the effect or the level left; details: 2190 h
[17] = Half life in mouse at 1 mg/kg, iv upto 48 hrs by LC/MS/MS analysis; assay type: ADME, organism-based; details: in vivo

IC50 [1]: 900 nM
AUC(0-inf) [3]: 7700 ng·h/mL
IC50 [4]: 43 nM
inhibition [5]: > 50%
hepatocyte CLint [6]: < 4 µL/min/1e6 cells
inhibition [8]: Active
bioavailability [10]: 100%
logD [12]: 3.2
AUC(0-inf) [14]: 1250 ng·h/mL
half-life [17]: 2.9 h
Compound: O=C(Nc1ccn(-c2ccnc(F)c2)n1)C1(c2ccccc2F)CC1
Activity [2]: Dde
Activity [7]: Toxic
Activity [9]: Active
Activity [11]: 0.4475 ng/mL
Activity [13]: Active
Activity [15]: Toxic
Activity [16]: 25%
